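Test compounds were applied to cells in 96-well plates for 48 hours at 5 doses. Abbreviation: GI50, concentration required for 50% inhibition of growth.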 The source made the active and inactive calls. Rule as the data show it: active = GI50 up to about 1.1 µM and inactive = higher.
Columns and labels:
Experiment in all cases: growth of human tumour cells (NCI), 48 h
786-0 = tested on: 786-0
A498 = tested on: A498
A549 = tested on: A549
ACHN = tested on: ACHN
BT-549 = tested on: BT-549
CAKI-1 = tested on: CAKI-1
CCRF-CEM = tested on: CCRF-CEM
COLO 205 = tested on: COLO 205
DU-145 = tested on: DU-145
EKVX = tested on: EKVX
HCC 2998 = tested on: HCC 2998
HCT-116 = tested on: HCT-116
HCT-15 = tested on: HCT-15
HL-60 = tested on: HL-60
HOP-62 = tested on: HOP-62
HOP-92 = tested on: HOP-92
HT-29 = tested on: HT-29
Hs-578T = tested on: Hs-578T
IGROV-1 = tested on: IGROV-1
K562 = tested on: K562
KM12 = tested on: KM12
LOX IMVI = tested on: LOX IMVI
M14 = tested on: M14
MCF7 = tested on: MCF7
MDA-MB-231 = tested on: MDA-MB-231
MDA-MB-435 = tested on: MDA-MB-435
MDA-N = tested on: MDA-N
MOLT-4 = tested on: MOLT-4
Malme-3M = tested on: Malme-3M
NCI-H226 = tested on: NCI-H226
NCI-H23 = tested on: NCI-H23
NCI-H460 = tested on: NCI-H460
NCI-H522 = tested on: NCI-H522
NCI/ADR-RES = tested on: NCI/ADR-RES
OVCAR-3 = tested on: OVCAR-3
OVCAR-4 = tested on: OVCAR-4
OVCAR-5 = tested on: OVCAR-5
OVCAR-8 = tested on: OVCAR-8
PC-3 = tested on: PC-3
RPMI-8226 = tested on: RPMI-8226
RXF 393 = tested on: RXF 393
SF-268 = tested on: SF-268
SF-295 = tested on: SF-295
SF-539 = tested on: SF-539
SK-MEL-28 = tested on: SK-MEL-28
SK-MEL-2 = tested on: SK-MEL-2
SK-MEL-5 = tested on: SK-MEL-5
SK-OV-3 = tested on: SK-OV-3
SN12C = tested on: SN12C
SNB-19 = tested on: SNB-19
SNB-75 = tested on: SNB-75
SR = tested on: SR
SW-620 = tested on: SW-620
T47D = tested on: T47D
TK-10 = tested on: TK-10
U-251 = tested on: U-251
UACC-257 = tested on: UACC-257
UACC-62 = tested on: UACC-62
UO-31 = tested on: UO-31

SMILES: NS(=O)(=O)c1ccc(NC(=O)N/N=C/c2ccccc2[N+](=O)[O-])cc1
- GI50 (786-0): 45.6 µM (inactive)
- GI50 (A498): > 100 µM (inactive)
- GI50 (A549): > 100 µM (inactive)
- GI50 (ACHN): 66.7 µM (inactive)
- GI50 (BT-549): 45.4 µM (inactive)
- GI50 (CAKI-1): 44.8 µM (inactive)
- GI50 (CCRF-CEM): 25.9 µM (inactive)
- GI50 (COLO 205): 38.4 µM (inactive)
- GI50 (DU-145): 72.3 µM (inactive)
- GI50 (EKVX): 61 µM (inactive)
- GI50 (HCC 2998): 33.9 µM (inactive)
- GI50 (HCT-116): 30.1 µM (inactive)
- GI50 (HCT-15): 35 µM
- GI50 (HL-60): 46.1 µM (inactive)
- GI50 (HOP-62): 40.8 µM (inactive)
- GI50 (HOP-92): 65.3 µM (inactive)
- GI50 (HT-29): 30.1 µM (inactive)
- GI50 (Hs-578T): 46.6 µM (inactive)
- GI50 (IGROV-1): 31.2 µM (inactive)
- GI50 (K562): 28.8 µM (inactive)
- GI50 (KM12): 36 µM (inactive)
- GI50 (LOX IMVI): 44.7 µM (inactive)
- GI50 (M14): 25.5 µM (inactive)
- GI50 (MCF7): 29.7 µM (inactive)
- GI50 (MDA-MB-231): 44.8 µM (inactive)
- GI50 (MDA-MB-435): 19 µM (inactive)
- GI50 (MDA-N): 19.4 µM (inactive)
- GI50 (MOLT-4): 39.8 µM (inactive)
- GI50 (Malme-3M): 78.2 µM (inactive)
- GI50 (NCI-H226): 42.9 µM (inactive)
- GI50 (NCI-H23): 41.6 µM (inactive)
- GI50 (NCI-H460): > 100 µM (inactive)
- GI50 (NCI-H522): 41.8 µM (inactive)
- GI50 (NCI/ADR-RES): 33.3 µM (inactive)
- GI50 (OVCAR-3): 30.1 µM (inactive)
- GI50 (OVCAR-4): 59.8 µM (inactive)
- GI50 (OVCAR-5): > 100 µM (inactive)
- GI50 (OVCAR-8): 37.7 µM (inactive)
- GI50 (PC-3): 35.6 µM (inactive)
- GI50 (RPMI-8226): 30.3 µM (inactive)
- GI50 (RXF 393): > 100 µM (inactive)
- GI50 (SF-268): 56.6 µM (inactive)
- GI50 (SF-295): 61.7 µM (inactive)
- GI50 (SF-539): 38.5 µM (inactive)
- GI50 (SK-MEL-28): 61.2 µM (inactive)
- GI50 (SK-MEL-2): 58.7 µM (inactive)
- GI50 (SK-MEL-5): 65.5 µM (inactive)
- GI50 (SK-OV-3): 45.5 µM (inactive)
- GI50 (SN12C): 32.7 µM (inactive)
- GI50 (SNB-19): 44 µM (inactive)
- GI50 (SNB-75): > 100 µM (inactive)
- GI50 (SR): 17.9 µM (inactive)
- GI50 (SW-620): 36.1 µM (inactive)
- GI50 (T47D): 57.4 µM (inactive)
- GI50 (TK-10): > 100 µM (inactive)
- GI50 (U-251): 43.1 µM (inactive)
- GI50 (UACC-257): 79.4 µM (inactive)
- GI50 (UACC-62): 75.3 µM (inactive)
- GI50 (UO-31): 41 µM (inactive)

SMILES: Cc1ccc(NC(=S)N/N=C(/c2ccccc2)c2ccccn2)cc1
- GI50 (786-0): 0.0284 µM (active)
- GI50 (A498): 0.815 µM (active)
- GI50 (A549): 0.108 µM (active)
- GI50 (ACHN): < 0.0371 µM (active)
- GI50 (BT-549): 4.25 µM (inactive)
- GI50 (CAKI-1): 0.059 µM (active)
- GI50 (CCRF-CEM): 0.0109 µM (active)
- GI50 (COLO 205): < 0.0166 µM (active)
- GI50 (DU-145): 0.938 µM (active)
- GI50 (EKVX): 0.0675 µM (active)
- GI50 (HCC 2998): 2.22 µM (inactive)
- GI50 (HCT-116): < 0.01 µM (active)
- GI50 (HCT-15): < 0.019 µM
- GI50 (HL-60): < 0.0121 µM (active)
- GI50 (HOP-62): 0.16 µM (active)
- GI50 (HOP-92): 0.278 µM (active)
- GI50 (HT-29): 0.0541 µM (active)
- GI50 (Hs-578T): 13.1 µM (inactive)
- GI50 (IGROV-1): < 0.0173 µM (active)
- GI50 (K562): < 0.0117 µM (active)
- GI50 (KM12): 0.1 µM (active)
- GI50 (LOX IMVI): 0.0346 µM (active)
- GI50 (M14): < 0.01 µM (active)
- GI50 (MCF7): 0.0164 µM (active)
- GI50 (MDA-MB-231): < 0.01 µM (active)
- GI50 (MDA-MB-435): 0.4 µM (active)
- GI50 (MDA-N): 0.708 µM (active)
- GI50 (MOLT-4): < 0.0118 µM (active)
- GI50 (NCI-H226): 0.124 µM (active)
- GI50 (NCI-H23): < 0.0187 µM (active)
- GI50 (NCI-H460): 0.117 µM (active)
- GI50 (NCI-H522): 1.31 µM (inactive)
- GI50 (NCI/ADR-RES): 0.0302 µM (active)
- GI50 (OVCAR-3): 0.0169 µM (active)
- GI50 (OVCAR-4): 0.241 µM (active)
- GI50 (OVCAR-5): 0.0233 µM (active)
- GI50 (OVCAR-8): 0.0569 µM (active)
- GI50 (PC-3): < 0.0154 µM (active)
- GI50 (RPMI-8226): < 0.0161 µM (active)
- GI50 (RXF 393): 0.621 µM (active)
- GI50 (SF-268): < 0.0233 µM (active)
- GI50 (SF-295): 0.212 µM (active)
- GI50 (SF-539): 0.729 µM (active)
- GI50 (SK-MEL-28): 0.224 µM (active)
- GI50 (SK-MEL-2): 4.52 µM (inactive)
- GI50 (SK-MEL-5): 0.0933 µM (active)
- GI50 (SK-OV-3): 0.0308 µM (active)
- GI50 (SN12C): 0.121 µM (active)
- GI50 (SNB-19): 3.27 µM (inactive)
- GI50 (SNB-75): 0.343 µM (active)
- GI50 (SR): < 0.01 µM (active)
- GI50 (SW-620): < 0.0183 µM (active)
- GI50 (T47D): < 0.0509 µM (active)
- GI50 (TK-10): 0.0631 µM (active)
- GI50 (U-251): 0.0265 µM (active)
- GI50 (UACC-257): < 0.0156 µM (active)
- GI50 (UACC-62): 0.304 µM (active)
- GI50 (UO-31): 0.177 µM (active)

Reference: ChEMBL document CHEMBL1201862, “PubChem BioAssay data set” (2004)
